Measured values published in a compilation of properties of binary mixtures (doi:10.1007/s10953-022-01154-2).

Assay: xn = mol fraction of the nth substance listed
Conditions: 101.3 kPa

CC1COC(=O)O1 (stereo not given) + CC[n+]1ccn(C)c1.N#C[S-]
x2 = 0
Conditions | viscosity [mPa·s]
298.15 K | 2.496
303.15 K | 2.164
313.15 K | 1.731
318.15 K | 1.586
323.15 K | 1.466
328.15 K | 1.373
338.18 K | 1.223
343.15 K | 1.173

CC[n+]1ccn(C)c1.N#C[S-] + CC1COC(=O)O1
Conditions | electrical conductivity [S/m] | viscosity [mPa·s]
293.15 K, x1 = 0.0989 | 1.49 | 4.213
293.15 K, x1 = 0.4 | 2.17 | 9.86
293.15 K, x1 = 0.499 | 2.06 | 12.27
293.15 K, x1 = 0.599 | 1.96 | 15.04
293.15 K, x1 = 0.7045 | 1.89 | 18.06
293.15 K, x1 = 0.796 | 1.77 | 20.66
293.15 K, x1 = 0.8942 | 1.66 | 23.53
293.15 K, x1 = 1 | 1.58 | 26.76
298.15 K, x1 = 0.2045 | 2.28 | 5.073
298.15 K, x1 = 0.2984 | 2.45 | 6.601
298.15 K, x1 = 0.499 | 2.25 | 10.59
298.15 K, x1 = 0.796 | 1.97 | 17.73
298.15 K, x1 = 0.8942 | 1.86 | 20.22
298.15 K, x1 = 1 | 1.75 | 23.11
303.15 K, x1 = 0.0989 | 1.86 | 3.259
303.15 K, x1 = 0.2045 | 2.48 | 4.415
303.15 K, x1 = 0.2984 | 2.67 | 5.742
303.15 K, x1 = 0.4 | 2.58 | 7.328
303.15 K, x1 = 0.499 | 2.47 | 9.17
303.15 K, x1 = 0.599 | 2.38 | 11.19
303.15 K, x1 = 0.7045 | 2.28 | 13.39
303.15 K, x1 = 0.796 | 2.19 | 15.34
303.15 K, x1 = 0.8942 | 2.06 | 17.54
303.15 K, x1 = 1 | 1.95 | 20.12
308.15 K, x1 = 0.0989 | 2.09 | 2.877
308.15 K, x1 = 0.2045 | 2.7 | 3.859
308.15 K, x1 = 0.2984 | 2.92 | 4.972
308.15 K, x1 = 0.4 | 2.82 | 6.341
308.15 K, x1 = 0.499 | 2.71 | 7.916
308.15 K, x1 = 0.599 | 2.62 | 9.67
308.15 K, x1 = 0.7045 | 2.52 | 11.57
308.15 K, x1 = 0.796 | 2.42 | 13.28
308.15 K, x1 = 0.8942 | 2.29 | 15.21
308.15 K, x1 = 1 | 2.17 | 17.5
313.15 K, x1 = 0.0989 | 2.32 | 2.569
313.15 K, x1 = 0.2045 | 2.94 | 3.39
313.15 K, x1 = 0.2984 | 3.17 | 4.367
313.15 K, x1 = 0.4 | 3.07 | 5.56
313.15 K, x1 = 0.499 | 2.96 | 6.909
313.15 K, x1 = 0.599 | 2.87 | 8.432
313.15 K, x1 = 0.796 | 2.67 | 11.58
313.15 K, x1 = 0.8942 | 2.52 | 13.32
313.15 K, x1 = 1 | 2.39 | 15.32
318.15 K, x1 = 0.0989 | 2.55 | 2.299
318.15 K, x1 = 0.4 | 3.33 | 4.83
318.15 K, x1 = 0.499 | 3.22 | 5.988
318.15 K, x1 = 0.796 | 2.92 | 10.18
318.15 K, x1 = 1 | 2.64 | 13.45
323.15 K, x1 = 0.0989 | 2.8 | 2.074
323.15 K, x1 = 0.2984 | 3.72 | 3.34
323.15 K, x1 = 0.4 | 3.6 | 4.247
323.15 K, x1 = 0.7045 | 3.28 | 7.629
323.15 K, x1 = 0.796 | 3.18 | 8.83
323.15 K, x1 = 0.8942 | 3.03 | 10.15
323.15 K, x1 = 1 | 2.89 | 11.78
328.15 K, x1 = 0.0989 | 3.05 | 1.878
328.15 K, x1 = 0.2045 | 3.72 | 2.36
328.15 K, x1 = 0.2984 | 4 | 2.943
328.15 K, x1 = 0.4 | 3.88 | 3.72
328.15 K, x1 = 0.7045 | 3.55 | 6.692
328.15 K, x1 = 1 | 3.15 | 10.37
333.15 K, x1 = 0.2045 | 4.02 | 2.095
333.15 K, x1 = 0.2984 | 4.29 | 2.593
333.15 K, x1 = 0.4 | 4.18 | 3.284
333.15 K, x1 = 0.499 | 4.06 | 4.06
333.15 K, x1 = 0.599 | 3.96 | 4.939
333.15 K, x1 = 0.7045 | 3.84 | 5.885
333.15 K, x1 = 0.796 | 3.74 | 6.792
333.15 K, x1 = 0.8942 | 3.6 | 7.876
333.15 K, x1 = 1 | 3.43 | 9.21
338.15 K, x1 = 0.2045 | 4.34 | –
338.15 K, x1 = 0.2984 | 4.61 | –
338.15 K, x1 = 0.4 | 4.47 | –
338.15 K, x1 = 0.499 | 4.35 | –
338.15 K, x1 = 0.599 | 4.26 | –
338.15 K, x1 = 0.7045 | 4.13 | –
338.15 K, x1 = 0.796 | 4.02 | –
338.15 K, x1 = 0.8942 | 3.89 | –
338.15 K, x1 = 1 | 3.72 | –
338.18 K, x1 = 0.0989 | – | 1.557
338.18 K, x1 = 0.2045 | – | 1.89
338.18 K, x1 = 0.4 | – | 2.891
338.18 K, x1 = 0.499 | – | 3.563
338.18 K, x1 = 0.599 | – | 4.34
338.18 K, x1 = 0.7045 | – | 5.225
338.18 K, x1 = 0.796 | – | 6.089
338.18 K, x1 = 0.8942 | – | 7.068
338.18 K, x1 = 1 | – | 8.1
343.15 K, x1 = 0.0989 | 3.88 | 1.432
343.15 K, x1 = 0.2045 | 4.67 | 1.699
343.15 K, x1 = 0.2984 | 4.92 | 2.057
343.15 K, x1 = 0.599 | 4.57 | 3.859
343.15 K, x1 = 0.7045 | 4.44 | 4.651
343.15 K, x1 = 0.796 | 4.32 | 5.421
343.15 K, x1 = 0.8942 | 4.2 | 6.296
